In US4931447A, “Cycloalkylamides of (8β)-1-alkyl-6-(substituted) ergolines” (Eli Lilly and Company, priority 1989, dated 1990):

Experiments:
5HT2 Receptors = biological target: T1, 5HT2 Receptors (Rattus norvegicus, UniProt P14842); experiment: Apparent antagonist dissociation constant (KB) at 5HT2 receptors, serotonin-induced contraction of isolated rat external jugular vein; assay type: cell-based, rat (male Wistar)
T1 construct: from tissue; host or cells: rat external jugular vein (isolated, male Wistar)
T1 sequence (P14842 whole entry): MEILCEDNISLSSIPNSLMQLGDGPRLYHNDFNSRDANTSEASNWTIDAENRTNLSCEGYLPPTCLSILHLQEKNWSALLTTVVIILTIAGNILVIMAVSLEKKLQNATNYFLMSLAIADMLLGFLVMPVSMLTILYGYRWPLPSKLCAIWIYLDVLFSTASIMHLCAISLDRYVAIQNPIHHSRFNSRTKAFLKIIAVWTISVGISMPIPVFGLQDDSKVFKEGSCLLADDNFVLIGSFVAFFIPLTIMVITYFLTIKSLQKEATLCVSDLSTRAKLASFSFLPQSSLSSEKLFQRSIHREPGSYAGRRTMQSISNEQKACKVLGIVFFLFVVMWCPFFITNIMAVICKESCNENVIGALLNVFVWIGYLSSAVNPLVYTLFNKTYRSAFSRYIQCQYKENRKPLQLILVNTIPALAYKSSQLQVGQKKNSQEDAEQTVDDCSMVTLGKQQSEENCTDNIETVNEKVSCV
Text: Male Wistar rats (about 150-300 gram weight) were killed and their external jugular veins and thoracic aortas dissected free of connective tissue, cannulated in situ and placed in a modified Krebs' bicarbonate buffer in a suitable tissue bath. Two L-shaped 30-gauge stainless-steel hypodermic needles were inserted in each cannula and the dissected vessels gently pushed onto the needles. One needle was attached with thread to a stationary glass rod and the other to the transducer. [The procedure employed was that described by Hooker, Calkins and Fleisch, Blood Vessels, 14, 1, (1977) for use with circular smooth muscle preparations.]
The modified Krebs' bicarbonate buffer was composed of the following (concentrations in millimoles): sodium chloride, 118.2; potassium chloride, 4.6; calcium chloride dihydrate, 1.6; potassium dihydrogenphosphate, 1.2; magnesium sulfate, 1.2; dextrose, 10.0; sodium bicarbonate, 24.8; and water q.s. to 1000 g. The tissue baths were maintained at 37° C. and were aerated with 95% oxygen: 5% carbon dioxide (v:v). An initial optimum resting force of 1 g and 4 g was applied to the jugular vein and aorta, respectively. Isometric contractions were recorded as changes in grams of force on a Beckman Dynograph with Statham UC-3 transducers and microscale accessory attachment. Tissues were allowed to equilibrate 1 to 2 hours before exposure to drugs. Control responses to serotonin in the jugular vein and to norepinephrine in the aorta were obtained. The vessels were then incubated with appropriate concentrations of the test compound for one hour. Responses to serotonin or to norepinephrine were then repeated in the presence of the test compound. Contraction to serotonin was evaluated in the jugular vein since this tissue produces marked responses to serotonin in the absence of alpha receptors. See Cohen and Wiley, J. Pharm. Exp. Ther., 205, 400 (1978). Alpha receptor antagonist activity was evaluated in the aorta.
Apparent antagonist dissociation constants were determined for each concentration of the test compound according to the following equation: [formula] wherein [B] is the concentration of the antagonist and the dose ratio is the ED50 of the agonist in the presence of the antagonist divided by the control ED50. […] The -log KB values obtained for representative sensitive compounds of this invention and are given below in Table 1. ln the Table, column I provides the Example Number of the compound evaluated in the screen; columns 2-6, the identity of the compound evaluated in the screen when taken with the structure provided; and column 7, the apparent dissociation constant for the test compound.

Male Rats [1] = experiment: Copulatory performance of male rats (Non-Maters and Non-Ejaculators), subcutaneous administration, percent responding (Table II); assay type: in vivo, rat (male Sprague-Dawley)
Protocol: (§1) Adult male rats of the Sprague-Dawley strain were used in these studies. The sexual behavior evaluations were conducted at 2-week intervals beginning at 6 months of age and ending at 12 months of age. During the initial screening process, the male rats of various levels of sexual performance were selected for compound testing. […] Prior to treatment with a drug solution, each male rat was required to have at least two consecutive vehicle tests with similar sexual performance. Following each compound testing, additional vehicle tests were performed.
(§2) The mating tests were performed during the dark phase of the lighting cycle using red light illumination. Each behavioral test was initiated with the introduction of a receptive female rat into the arena and was terminated either 30 minutes later or immediately following the first postejaculatory mount. The indiees of mating performance that were evaluated for the rats capable of ejaculation included mount latency (the time interval from the introduction of the female rat to the first mount); intromission latency (the time interval from the introduction of the female rat to the first intromission); ejaculatory latency (the time interval from intromission to ejaculation); postejaculatory interval (the time from ejaculation to the next mount); mount frequency (the total number of mounts with or without intromission prior to ejaculation); intromission frequency (the number of mounts with intromission prior to ejaculation); intromission efficiency (the intromission frequency divided by the mount frequency); copulatory rate (the number of mounts per minute); copulatory frequency (the number of mounts prior to ejaculation); and copulatory efficiency (the number of mounts with intromission divided by the total number of mounts).
(§3) Each male rat was given a solution containing either the vehicle alone in water or the compound of Example 1, (8β)-N-cyclohexyl-1-isopropyl-6-methylergoline-8-carboxamide, in the same vehicle. Vehicle was made of 1 mM (millimolar) acetic acid and 1 mM ascorbic acid.
(§4) The results of these studies are set forth below in Tables II-VII. In the Tables "N" is the number of animals used to generate the data, the average of which is provided. The specific description of the test performed is set forth in the heading of the Tables.

Male Rats [2] = experiment: Copulatory performance of male rats, subcutaneous administration (Tables III, IV); assay type: in vivo, rat (male Sprague-Dawley); details: for Postejaculatory Latency / Ejaculatory Latency: 30 min before test; for Copulatory Rate: number of mounts per minute
Protocol: as §1, §2, §3, §4
Control values were obtained from the same rats 2 weeks earlier following
All injections were made 30 minutes prior to testing

Male Rats [3] = experiment: Copulatory performance of male rats, oral administration (Tables V, VI); assay type: in vivo, rat (male Sprague-Dawley); details: for Postejaculatory Latency / Ejaculatory Latency: 90 min before test, seconds per Table III; for Copulatory Rate: number of mounts per minute
Protocol: as §1, §2, §3, §4
All solutions were administered by gavage 90 minutes prior to testing.
Control responses were obtained from the same rats 2 weeks earlier
following vehicle administration by gavage.

## CC(C)n1cc2c3c(cccc31)[C@H]1C[C@@H](C(=O)NC3CCCCC3)CN(C)[C@@H]1C2 [Example 1, (8β)-N-Cyclohexyl-1-isopropyl-6-methylergoline-8-carboxamide]
5HT2 Receptors
  Kb: 0.214 nM
Male Rats [1]; 1 ng/kg s.c., 1/9 responding
  Non-Ejaculators Percent Responding: 11.1%
Male Rats [1]; 1 ng/kg s.c., 1/16 responding
  Non-Maters Percent Responding: 6.3%
Male Rats [1]; 10 ng/kg s.c., 4/14 responding
  Non-Maters Percent Responding: 28.6%
Male Rats [1]; 10 ng/kg s.c., 9/20 responding
  Non-Ejaculators Percent Responding: 45.0%
Male Rats [1]; 100 ng/kg s.c., 6/11 responding
  Non-Ejaculators Percent Responding: 54.5%
Male Rats [1]; 100 ng/kg s.c., 8/14 responding
  Non-Maters Percent Responding: 57.1%
Male Rats [1]; 1000 ng/kg s.c., 7/12 responding
  Non-Maters Percent Responding: 58.3%
Male Rats [1]; 1000 ng/kg s.c., 9/16 responding
  Non-Ejaculators Percent Responding: 56.3%
Male Rats [1]; 10000 ng/kg s.c., 6/11 responding
  Non-Maters Percent Responding: 54.5%
Male Rats [1]; 10000 ng/kg s.c., 11/18 responding
  Non-Ejaculators Percent Responding: 61.1%
Male Rats [2]; 0.01 mcg/kg s.c., N = 14, control 366.9 ± 15.6
  Postejaculatory Latency: 366.8 ± 19.8 s
Male Rats [2]; 0.01 mcg/kg s.c., N = 14, control 602.6 ± 47.4
  Ejaculatory Latency: 530.4 ± 64.6 s
Male Rats [2]; 0.01 mcg/kg s.c., N = 14, control 0.59 ± 0.05
  Copulatory Efficiency: 0.56 ± 0.03
Male Rats [2]; 0.01 mcg/kg s.c., N = 14, control 20.1 ± 2.4
  Mount Frequency: 21.4 ± 2.0
Male Rats [2]; 0.01 mcg/kg s.c., N = 14, control 2.1 ± 0.2
  Copulatory Rate: 2.4 ± 0.3
Male Rats [2]; 0.10 mcg/kg s.c., N = 15, control 367.1 ± 18.7
  Postejaculatory Latency: 355.9 ± 13.2 s
Male Rats [2]; 0.10 mcg/kg s.c., N = 15, control 747.9 ± 61.8, significant (*)
  Ejaculatory Latency: 532.9 ± 58.0 s
Male Rats [2]; 0.10 mcg/kg s.c., N = 15, control 0.38 ± 0.03, significant (*)
  Copulatory Efficiency: 0.54 ± 0.04
Male Rats [2]; 0.10 mcg/kg s.c., N = 15, control 25.0 ± 2.3
  Mount Frequency: 22.9 ± 2.6
Male Rats [2]; 0.10 mcg/kg s.c., N = 15, control 2.0 ± 0.2, significant (*)
  Copulatory Rate: 2.7 ± 0.3
Male Rats [2]; 1.0 mcg/kg s.c., N = 11, control 371.2 ± 19.8
  Postejaculatory Latency: 357.3 ± 9.5 s
Male Rats [2]; 1.0 mcg/kg s.c., N = 11, control 749.5 ± 59.1, significant (*)
  Ejaculatory Latency: 584.8 ± 89.4 s
Male Rats [2]; 1.00 mcg/kg s.c., N = 11, control 0.53 ± 0.04, significant (*)
  Copulatory Efficiency: 0.67 ± 0.03
Male Rats [2]; 1.00 mcg/kg s.c., N = 11, control 23.1 ± 2.4
  Mount Frequency: 21.4 ± 1.7
Male Rats [2]; 1.00 mcg/kg s.c., N = 11, control 1.9 ± 0.2, significant (*)
  Copulatory Rate: 2.4 ± 0.2
Male Rats [2]; 10.0 mcg/kg s.c., N = 11, control 368.3 ± 23.0
  Postejaculatory Latency: 333.9 ± 10.9 s
Male Rats [2]; 10.0 mcg/kg s.c., N = 11, control 850.4 ± 99.2, significant (*)
  Ejaculatory Latency: 454.1 ± 78.4 s
Male Rats [2]; 10.0 mcg/kg s.c., N = 11, control 0.49 ± 0.05, significant (*)
  Copulatory Efficiency: 0.57 ± 0.04
Male Rats [2]; 10.0 mcg/kg s.c., N = 11, control 23.2 ± 2.1
  Mount Frequency: 18.5 ± 2.4
Male Rats [2]; 10.0 mcg/kg s.c., N = 11, control 1.7 ± 0.2, significant (*)
  Copulatory Rate: 2.6 ± 0.4
Male Rats [2]; 100.0 mcg/kg s.c., N = 16, control 373.3 ± 22.8
  Postejaculatory Latency: 325.6 ± 16.0 s
Male Rats [2]; 100.0 mcg/kg s.c., N = 16, control 731.8 ± 44.5, significant (*)
  Ejaculatory Latency: 463.6 ± 46.6 s
Male Rats [2]; 100.0 mcg/kg s.c., N = 16, control 0.49 ± 0.03, significant (*)
  Copulatory Efficiency: 0.59 ± 0.04
Male Rats [2]; 100.0 mcg/kg s.c., N = 16, control 24.8 ± 2.3
  Mount Frequency: 21.3 ± 1.4
Male Rats [2]; 100.0 mcg/kg s.c., N = 16, control 2.1 ± 0.2, significant (*)
  Copulatory Rate: 2.9 ± 0.3
Male Rats [3]; 0.01 mcg/kg oral gavage, N = 17, control 358.5 ± 23.1
  Postejaculatory Latency: 370.2 ± 23.7
Male Rats [3]; 0.01 mcg/kg oral gavage, N = 17, control 713.6 ± 58.1, significant (*)
  Ejaculatory Latency: 689.2 ± 91.2
Male Rats [3]; 0.01 mcg/kg oral gavage, N = 17, control 0.43 ± 0.04
  Copulatory Efficiency: 0.46 ± 0.05
Male Rats [3]; 0.01 mcg/kg oral gavage, N = 17, control 29.7 ± 2.9, significant (*)
  Mount Frequency: 27.5 ± 4.4
Male Rats [3]; 0.01 mcg/kg oral gavage, N = 17, control 2.5 ± 0.2
  Copulatory Rate: 2.3 ± 0.2
Male Rats [3]; 0.1 mcg/kg oral gavage, N = 14, control 381.9 ± 13.4, significant (*)
  Postejaculatory Latency: 313.4 ± 12.0
Male Rats [3]; 0.1 mcg/kg oral gavage, N = 14, control 735.4 ± 51.9, significant (*)
  Ejaculatory Latency: 486.5 ± 70.8
Male Rats [3]; 0.1 mcg/kg oral gavage, N = 14, control 0.60 ± 0.05
  Copulatory Efficiency: 0.60 ± 0.05
Male Rats [3]; 0.1 mcg/kg oral gavage, N = 14, control 19.4 ± 2.4
  Mount Frequency: 18.7 ± 2.1
Male Rats [3]; 0.1 mcg/kg oral gavage, N = 14, control 1.7 ± 0.2, significant (*)
  Copulatory Rate: 2.5 ± 0.4
Male Rats [3]; 1.0 mcg/kg oral gavage, N = 8, control 384.1 ± 23.5
  Postejaculatory Latency: 322.1 ± 15.3
Male Rats [3]; 1.0 mcg/kg oral gavage, N = 8, control 646.3 ± 51.0
  Ejaculatory Latency: 415.9 ± 62.3
Male Rats [3]; 1.0 mcg/kg oral gavage, N = 8, control 0.59 ± 0.06
  Copulatory Efficiency: 0.58 ± 0.04
Male Rats [3]; 1.0 mcg/kg oral gavage, N = 8, control 21.1 ± 3.9, significant (*)
  Mount Frequency: 16.8 ± 1.8
Male Rats [3]; 1.0 mcg/kg oral gavage, N = 8, control 2.0 ± 0.4
  Copulatory Rate: 2.7 ± 0.4
Male Rats [3]; 10.0 mcg/kg oral gavage, N = 12, control 345.1 ± 20.3, significant (*)
  Postejaculatory Latency: 299.7 ± 15.1
Male Rats [3]; 10.0 mcg/kg oral gavage, N = 12, control 731.0 ± 87.0, significant (*)
  Ejaculatory Latency: 434.2 ± 37.9
Male Rats [3]; 10.0 mcg/kg oral gavage, N = 12, control 0.43 ± 0.03
  Copulatory Efficiency: 0.49 ± 0.04
Male Rats [3]; 10.0 mcg/kg oral gavage, N = 12, control 25.9 ± 1.6
  Mount Frequency: 22.9 ± 1.2
Male Rats [3]; 10.0 mcg/kg oral gavage, N = 12, control 2.2 ± 0.2, significant (*)
  Copulatory Rate: 3.3 ± 0.3
Male Rats [3]; 100.0 mcg/kg oral gavage, N = 8, control 417.9 ± 28.4
  Postejaculatory Latency: 350.6 ± 29.5
Male Rats [3]; 100.0 mcg/kg oral gavage, N = 8, control 804.6 ± 73.5, significant (*)
  Ejaculatory Latency: 366.1 ± 52.2
Male Rats [3]; 100.0 mcg/kg oral gavage, N = 8, control 0.51 ± 0.06, significant (*)
  Copulatory Efficiency: 0.69 ± 0.04
Male Rats [3]; 100.0 mcg/kg oral gavage, N = 8, control 19.4 ± 1.7, significant (*)
  Mount Frequency: 14.4 ± 1.3
Male Rats [3]; 100.0 mcg/kg oral gavage, N = 8, control 1.4 ± 0.1, significant (*)
  Copulatory Rate: 2.6 ± 0.4
